Experimental data published in patent publication US7718768B2, “Biologically active peptide [sequence]” (CMS Peptides Patent Holding Company Limited, priority 2001, dated 2010).
Marks after values point to notes of the source that are not given here. No end group written: not given here.

What was measured:
Assay type in all cases: in vivo, BALB/c mice
T lymphocyte = T lymphocyte transformation in mice with ascitic fluid type liver cancer H22
Description: (§1) Healthy BALB/c mice were randomized into peptide group, rmIFN-γ group, rhIL-2 group, and saline group, 15 mice per group, and prepared into H22 carrying mice model as described in section Method 3. After implantation of the cancer cells, the test substances were administered for 15 days, the mice were killed by cervical dislocation. The spleen was isolated aseptically and manually dispersed in cold D-Hank's solution using an injection needle. The dispersed cell suspension was further sieved through a 100-gauge 150 μm diameter stainless steel sieve. After centrifugation at 200 g for 10 minutes, the supernatant was discarded. The cell pellet was re-suspended in 10 volume of Tris-NH4Cl buffer and then kept standing still for 10 minutes at room temperature. The suspended cells were collected by centrifugation at 150 g for 10 minutes. The cells were washed 2-4 times with cold D-Hank's solution by re-suspending and collecting by centrifugation with condition as described above. The washed cells were then diluted to the desired cell densities by RPMI-1640 culture medium, containing 10% fetal bovine serum.
Spleen cells of density 1×10^6/ml were placed onto a 96 wells cell culture plate, 100 μl/well, three parallel wells each of the assay sample and control sample per mouse. To the assay wells, 100 μl/well ConA of 100 μg/ml in RPMI-1640 was added, and 100 μl/well plain RPMI-1640 was used for the controls. The cells were incubated for 66 hrs at 37° C., 5% CO2. The cells were then pelleted by centrifugation at 150 g for 10 minutes.
50 μl/well MTT of 1 mg/ml in RPMI-1640 was added to the cell pellet and the cells re-suspended by shaking for 2 minutes. The incubation was continued for 4 hours. The supernatant was discarded after centrifugation at 150 g for 10 minutes. 120 μl 40 mM HCl-2-propanol was added to the cell pellet and shaken for 3 minutes. Use an ELISA reader to obtain OD570nm of each well referenced at 630 nm.
Each mouse formed three assay wells and three control wells. The Stimulation Index (SI) of each mouse was obtained by first deriving the average OD of the three parallel wells, then dividing the value of the assay wells by the control wells.

mononuclear phagocyte = assay: phagocytosis index in mice with transplanted S180 sarcoma
Description: (§2) Intraperitoneal injection, once per day. […] Treatment of all groups with testing substance lasted for 30 days or until the animal died unless otherwise specified.
Stock S180 sarcoma cells were incubated in DMEM/F12 medium supplemented with 10% fetal bovine serum, 37° C., 5% CO2 for 72 hrs, then washed 3-4 times with Hank's solution at room temperature. Adjust the cell concentration to 1-2×10^9 per liter with Hank's solution. […] The mice were killed by cervical vertebra dislocation. Vigorously growing and non-disrupted tumor masses were harvested and washed clean with sterile saline. The tissue was dispersed in saline to a homogenous cell suspension, in a ratio of 1 g tissue to 4 ml saline. The sarcoma bearing mice model was prepared with an injection of 0.2 ml cell suspension through the armpit. Administration of test substance treatment started as described in section Method 1.
2.1 The effect of peptides on the phagocytotic function of mononuclear phagocyte in mice with S180 sarcoma was analyzed by injecting mice from the tail vein with 0.1 ml/10 g body weight of Indian ink (1:5 dilution with normal saline) on the second day after the last test substance administration. At one minute and five minutes after the injection, 20 μl blood was obtained from the eye canthus with heparinised tubing. The blood was mixed with 2 ml 0.1% w/v Na2CO3 and then OD680nm obtained. The outline clear index K was calculated by the following formula: K=(lgA1−lgA2)÷(t2−t1)
After the phagocytosis index study, the mice were killed by cervical vertebra dislocation. The liver, spleen, and cancer tissue were dissected, blotted dry, and weighed.
1. The Phagocytosis Index α was Calculated as Below: α=(^3√K)×(W÷WLS)

NK cell = NK cell activity in mice with ascitic fluid type liver cancer H22
Description: as §1
Mice spleen cells were prepared to 4×10^6/ml as described in section 4.1 above. Target cells YAC-1 were brought to log phase and adjusted to 1×10^5/ml. Using a 96 wells cell culture plate, 100 μl mouse spleen cells and 100 μl culture medium were added to the control well containing only the spleen cells; 100 μl target cells and 100 μl culture medium were added to the control well containing only target cells; 100 μl mouse spleen cells and 100 μl target cells were added to the NK activity assay well. Three parallel sets of the above were prepared per mouse. After that, the 96 wells cell culture plates were incubated for 4 hrs at 37° C., 5% CO2.
Samples were centrifuged at 150 g for 10 minutes to collect the cells. The supernatant was discarded and 50 μl/well MTT of 1 mg/ml was added. The reaction-mixture was then shaken for 2 minutes, and incubated at 37° C., 5% CO2 for 4 hours. The supernatant was discarded after centrifugation at 150 g for 10 minutes. 120 μl 40 mM HCl-2-propanol was added and shaken for 3 minutes. An ELISA reader was used to obtain OD570nm of each well referenced at 630 nm.
The NK cell activity index of each mouse was obtained by first deriving the average OD of the three parallel wells of each combination, then applying this average OD to the following formula: NK cell activity index=[1−(average OD of spleen and target cell well−average OD of spleen cell only well)÷(average OD of target cell only well)]×100% 5. The Effect of Peptides on the Survival of DBA/2 Mice with Transplanted L1210 Leukemia

[1] = test system: ascitic fluid type liver cancer H22; assay: survival of mice with transplanted ascitic fluid type liver cancer H22; settings: for Survival index: versus saline group
Description: as §2
Stock H22 cells were incubated in DMEM/F12 medium supplemented with 10% fetal bovine serum, 37° C./5% CO2 for 72 hrs, then washed 3-4 times with Hank's solution at room temperature. Adjust cell concentration to 1-2×10^9 per liter with Hank's solution. 0.2 ml of the cell suspension was implanted to the abdominal cavity of several BALB/c mice for 6-8 days. The mice were killed by cervical vertebra dislocation. Ascitic fluid of the mice was collected asceptically and the cell concentration adjusted to 1×10^6 per ml with Hank's solution. 0.2 ml of the cell suspension was implanted into the abdominal cavity of healthy mice to generate the H22 carrying mouse model for ascitic fluid type liver cancer. Administration of test substance started as described in section Method 1. Survival data of the mice was recorded. If the animal survived longer than the experiment, the survival days was recorded as the duration of the experiment. Mean survival day was obtained by the Kaplan-meier method in the Survival option of the SPSS software. The survival index was calculated according to the following formula: Survival index(mean survival days in treatment group−mean survival days of control group)÷mean survival days of control group×100% 4. The Effect of Peptides on the Cellular Immunity of BALB/c Mice with Transplanted Ascitic Fluid Type Liver Cancer H22 4.1 Preparation of Spleen Cell Suspension^[1,4]

[2] = 3 × 10^5 IU/kg i.p. once per day

Molecule: Pro Glu Asn Phe (PENF; listed as Sus scrofa) [CMS034]
- Stimulation index (T lymphocyte; 0.5 μg/kg i.p. once per day): 1.37 ± 0.10*^$
- Phagocytosis index (mononuclear phagocyte; 0.5 μg/kg i.p. once per day): 6.35 ± 1.02
- Phagocytosis index (mononuclear phagocyte; 5 μg/kg i.p. once per day): 6.20 ± 0.44*^
- NK activity index (NK cell; 50 μg/kg i.p. once per day): 57.3 ± 17.9*^^$& %

Molecule: FNFVPP [CMS003]
- NK activity index (NK cell; 500 μg/kg i.p. once per day): 37.9 ± 14.5*^^$ %

Molecule: VAPEEHPTLLTEAPLNPK [CMS010]
- Stimulation index (T lymphocyte; 500 μg/kg i.p. once per day): 1.45 ± 0.21*^$

Molecule: Tyr Ser Leu (YSL; listed as Sus scrofa) [CMS024]
- Stimulation index (T lymphocyte; 0.5 μg/kg i.p. once per day): 1.46 ± 0.19*^$
- Stimulation index (T lymphocyte; 5 μg/kg i.p. once per day): 1.45 ± 0.21*^$
- Survival days ([1]; 0.5 μg/kg i.p. once per day): 46.4 ± 14.8*^^&$ days
- Survival index ([1]; 0.5 μg/kg i.p. once per day): 76.9%
- postmortem examination of the long-surviving mice ([1]; 0.5 μg/kg/day): did not show sign of tumor establishment
- share of mice surviving longer than 90 days ([1]; 0.5 μg/kg/day, n=6, two months after the experiment ended): more than 30%
- Survival days ([1]; 5 μg/kg i.p. once per day): 40.6 ± 14.6*^&$ days
- Survival index ([1]; 5 μg/kg i.p. once per day): 54.8%
- Survival days ([1]; 50 μg/kg i.p. once per day): 36.3 ± 12.7*^&$ days
- Survival index ([1]; 50 μg/kg i.p. once per day): 38.4%
- NK activity index (NK cell; 0.5 μg/kg i.p. once per day): 39.3 ± 18.7*^$ %
- NK activity index (NK cell; 5 μg/kg i.p. once per day): 34.9 ± 12.1*^^$ %
- NK activity index (NK cell; 50 μg/kg i.p. once per day): 43.6 ± 13.9*^^$& %

Molecule: Phe Glu Glu Glu (FEEE; listed as Sus scrofa) [CMS032]
- Survival days ([1]; 0.5 μg/kg i.p. once per day): 42.8 ± 12.2*^^&$ days
- Survival index ([1]; 0.5 μg/kg i.p. once per day): 63.3%
- NK activity index (NK cell; 5 μg/kg i.p. once per day): 52.6 ± 12.5*^^$& %
- NK activity index (NK cell; 50 μg/kg i.p. once per day): 41.0 ± 18.7*^^$& %

Molecule: KAVGHLDDLPGAL [CMS008]
- Survival days ([1]; 5 μg/kg i.p. once per day): 50.7 ± 20.9*^& days
- Survival index ([1]; 5 μg/kg i.p. once per day): 67.8%

Molecule: RVAPEEHPTL [CMS011]
- Survival days ([1]; 5 μg/kg i.p. once per day): 36.4 ± 22.2*^& days
- Survival index ([1]; 5 μg/kg i.p. once per day): 60.2%

Molecule: VGMGQKDSY [CMS019]
- Stimulation index (T lymphocyte; 0.5 μg/kg i.p. once per day): 1.50 ± 0.19*^$

Molecule: Phe Val Asn Asp (FVND; listed as Sus scrofa) [CMS035]
- Stimulation index (T lymphocyte; 0.5 μg/kg i.p. once per day): 1.40 ± 0.13*^$
- Stimulation index (T lymphocyte; 5 μg/kg i.p. once per day): 1.46 ± 0.16*^$

Molecule: PTTKTYFPHF [CMS001]
- Phagocytosis index (mononuclear phagocyte; 5 μg/kg i.p. once per day): 6.67 ± 0.43*^
- Phagocytosis index (mononuclear phagocyte; 50 μg/kg i.p. once per day): 6.24 ± 0.33*^

B1: IFN-γ: recombinant mouse interferon-γ, Beijing Biotech Inc.; positive control immunostimulant (protein, UniProt P01580 23-155, looked up)
Interferon gamma: HGTVIESLESLNNYFNSSGIDVEEKSLFLDIWRNWQKDGDMKILQSQIISFYLRLFEVLKDNQAISNNISVIESHLITTFFSNSKAKKDAFMSIAKFEVNNPQVQRQAFNELIRVVHQLLPESSLRKRKRSRC
- Stimulation index (T lymphocyte; [2]): 1.27 ± 0.14
- Phagocytosis index (mononuclear phagocyte; [2]): 5.45 ± 0.71
- Survival days [1, 2]: 27.8 ± 7.5 days
- Survival index [1, 2]: 6.1%
- NK activity index (NK cell; [2]): 20.9 ± 3.3%
